Data as given in patent US7253171B2 (Laboratorios Almirall, S.A., priority 2001, dated 2007).

target: T1, α4β1 integrin (Homo sapiens, UniProt P05556+P13612); assay: U-937 cell adhesion to human VCAM-1 (α4β1 binding assay); format: cell-based; details: U-937 cells, immobilized human VCAM-1; read-out: IC50 values in the α4β1 assays
T1 construct: endogenous in cells; host or cells: U-937 cells
Experimental: U-937 Cell Adhesion to Human VCAM-1 (α4β1 Binding Assay)
Recombinant human soluble VCAM-1 (R&D Systems Ltd., UK) at 2 μg/ml in PBS was immobilized overnight onto microtiter plates. Unbound VCAM-1 was washed away and VCAM-1 coated plates were blocked with bovine serum albumin (BSA) 2,5% in PBS for 2 h at room temperature. U-937 cells were labelled with 5-carboxyfluorescein diacetate (5-CFDA) in order to detect bound cells to the wells. Test compounds were added to the wells followed by U-937 cells and the adhesion assay was performed for 1 h at 37° C. Following incubation, the wells were emptied and washed. Inhibition of binding was measured by the quantity of fluorescence bound to the plate for each of the various concentrations of test compound, as well as for controls containing no test compound, with a Cytofluor 2300 fluorescence measurement system.

T1 sequence (P13612 34-1032): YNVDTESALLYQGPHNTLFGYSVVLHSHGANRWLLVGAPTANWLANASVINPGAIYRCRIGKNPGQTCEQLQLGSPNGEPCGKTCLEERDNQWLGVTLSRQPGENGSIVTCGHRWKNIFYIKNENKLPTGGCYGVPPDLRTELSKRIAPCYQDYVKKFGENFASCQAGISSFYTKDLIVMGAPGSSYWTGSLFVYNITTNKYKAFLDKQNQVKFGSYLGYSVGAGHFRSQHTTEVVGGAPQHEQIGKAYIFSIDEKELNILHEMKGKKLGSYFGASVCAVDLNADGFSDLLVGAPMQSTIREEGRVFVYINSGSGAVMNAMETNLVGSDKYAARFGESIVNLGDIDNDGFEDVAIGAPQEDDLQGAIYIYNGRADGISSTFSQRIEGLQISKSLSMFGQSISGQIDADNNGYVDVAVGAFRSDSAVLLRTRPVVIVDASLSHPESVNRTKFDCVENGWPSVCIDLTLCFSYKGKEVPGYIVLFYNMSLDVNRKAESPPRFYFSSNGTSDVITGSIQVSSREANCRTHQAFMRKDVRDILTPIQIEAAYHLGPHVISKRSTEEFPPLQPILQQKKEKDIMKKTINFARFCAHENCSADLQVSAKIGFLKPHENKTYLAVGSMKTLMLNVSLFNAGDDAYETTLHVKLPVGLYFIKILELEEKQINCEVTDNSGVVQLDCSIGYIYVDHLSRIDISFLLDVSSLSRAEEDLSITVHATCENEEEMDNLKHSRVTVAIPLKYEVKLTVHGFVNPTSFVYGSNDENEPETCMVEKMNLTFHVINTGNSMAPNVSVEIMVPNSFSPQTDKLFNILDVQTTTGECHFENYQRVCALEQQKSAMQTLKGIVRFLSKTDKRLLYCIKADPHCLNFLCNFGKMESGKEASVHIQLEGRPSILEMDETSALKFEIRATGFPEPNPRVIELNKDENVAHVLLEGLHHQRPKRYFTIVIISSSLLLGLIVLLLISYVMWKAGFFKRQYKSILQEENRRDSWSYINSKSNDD
T1 sequence (P05556 21-798): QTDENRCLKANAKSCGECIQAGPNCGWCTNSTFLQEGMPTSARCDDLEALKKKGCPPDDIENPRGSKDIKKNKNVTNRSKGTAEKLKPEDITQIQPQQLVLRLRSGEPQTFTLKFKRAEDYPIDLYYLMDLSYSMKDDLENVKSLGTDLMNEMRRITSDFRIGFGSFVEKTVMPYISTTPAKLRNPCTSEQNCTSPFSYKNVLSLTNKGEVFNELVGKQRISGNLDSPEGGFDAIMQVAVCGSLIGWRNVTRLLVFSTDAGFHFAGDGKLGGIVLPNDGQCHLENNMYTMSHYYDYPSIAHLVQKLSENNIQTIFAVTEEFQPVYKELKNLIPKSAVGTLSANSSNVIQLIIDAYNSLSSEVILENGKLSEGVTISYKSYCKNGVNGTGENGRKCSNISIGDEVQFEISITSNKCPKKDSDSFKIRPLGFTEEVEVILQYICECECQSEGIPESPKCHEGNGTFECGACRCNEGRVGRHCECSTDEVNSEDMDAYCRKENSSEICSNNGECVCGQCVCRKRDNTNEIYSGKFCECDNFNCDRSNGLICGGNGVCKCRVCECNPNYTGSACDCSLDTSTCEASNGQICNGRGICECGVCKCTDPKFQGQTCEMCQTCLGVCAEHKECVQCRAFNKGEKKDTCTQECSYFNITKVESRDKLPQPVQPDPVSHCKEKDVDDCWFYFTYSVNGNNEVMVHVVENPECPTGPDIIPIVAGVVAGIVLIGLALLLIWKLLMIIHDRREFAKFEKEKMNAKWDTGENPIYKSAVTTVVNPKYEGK

Row | IC50 | SMILES
1 | < 100 nM | O=C(Nc1ccccc1S(=O)(=O)Nc1ccccc1)N[C@@H](Cc1ccc(NC(=O)c2c(Cl)cccc2Cl)cc1)C(=O)O [Example 22, (S)-3-[4-(2,6-Dichlorobenzoylamino)phenyl]-2-[3-(2-phenylsulfamoylphenyl)ureido]propionic acid]
2 | < 100 nM | Cc1ccc(S(=O)(=O)c2ccc(Cl)c(NC(=O)N[C@@H](Cc3ccc(NC(=O)c4c(Cl)cccc4Cl)cc3)C(=O)O)c2)cc1 [Example 54, (S)-2-{3-[2-Chloro-5-(toluene-4-sulfonyl)phenyl]ureido}-3-[4-(2,6-dichlorobenzoylamino)phenyl]propionic acid]
3 | < 100 nM | O=C(Nc1ccccc1S(=O)(=O)N1CCCCC1)N[C@@H](Cc1ccc(NC(=O)c2c(Cl)cncc2Cl)cc1)C(=O)O [Example 62, (S)-3-{4-[(3,5-Dichloropyridine-4-carbonyl)amino]phenyl}-2-{3-[2-(piperidine-1-sulfonyl)phenyl]ureido}propionic acid]
4 | < 100 nM | O=C(Nc1ccccc1S(=O)(=O)c1ccccc1)N[C@@H](Cc1ccc(NC(=O)c2c(Cl)cncc2Cl)cc1)C(=O)O [Example 70, (S)-2-[3-(2-Benzenesulfonylphenyl)ureido]-3-{4-[(3,5-dichloropyridine-4-carbonyl)amino]phenyl}propionic acid]
5 | < 100 nM | O=C(Nc1cccc(C(=O)c2ccccc2)c1)N[C@@H](Cc1ccc(NC(=O)c2c(Cl)cncc2Cl)cc1)C(=O)O [Example 77, (S)-3(4-{[1-(3,5-Dichloropyridin-4-yl)methanoyl]amino}phenyl)-2-{3-[3-(1-phenylmethanoyl)phenyl]ureido}propionic acid]
6 | < 100 nM | CN(C(=O)N[C@@H](Cc1ccc(NC(=O)c2c(Cl)cncc2Cl)cc1)C(=O)O)c1ccccc1Cc1ccccc1 [Example 79, (S)-2-[3-(2-Benzylphenyl)-3-methylureido]-3-(4-{[1-(3,5-dichloropyridin-4-yl)methandyl]amino}-phenyl)propionic acid]
7 | < 100 nM | CC(C)(C)S(=O)(=O)c1ccccc1NC(=O)N[C@@H](Cc1ccc(NC(=O)c2c(Cl)cncc2Cl)cc1)C(=O)O [Example 94, (S)-3-(4-{[1-(3,5-Dichloropyridin-4-yl)methanoyl]amino}phenyl)-2-{3-[2-(2-methylpropane-2-sulfonyl)phenyl]ureido}propionic acid]
8 | < 100 nM | Cc1csc2nc(Sc3ccccc3NC(=O)N[C@@H](Cc3ccc(NC(=O)c4c(Cl)cncc4Cl)cc3)C(=O)O)cnc12 [Example 96, (S)-3-(4-{[1-(3,5-Dichloropyridin-4-yl)methanoyl]amino}phenyl)-2-(3-[2-(7-methylthieno[2,3-b]pyrazin-3-ylsulfanyl)phenyl]ureido}propionic acid]
9 | < 100 nM | O=C(Nc1ccccc1Sc1c(Cl)cncc1Cl)N[C@@H](Cc1ccc(NC(=O)c2c(Cl)cncc2Cl)cc1)C(=O)O [Example 98, (S)-3-(4-{[1-(3,5-Dichloropyridin-4-yl)methanoyl]amino}phenyl)-2-{3-[2-(3,5-dichloropyridin-4-ylsulfanyl)phenyl]ureido}propionic acid]
10 | < 100 nM | O=C(Nc1ccccc1S(=O)(=O)c1ccccc1)N[C@@H](Cc1ccc(NC(=O)c2c(Br)cncc2Br)cc1)C(=O)O [Example 106, (S)-2-[3-(2-Benzenesulfonylphenyl)ureido]-3-(4-{[1-(3,5-dibromopyridin-4-yl)-methanoyl]amino}phenyl)propionic acid]
11 | < 100 nM | O=C(Nc1ccccc1S(=O)(=O)c1ccccc1)N[C@@H](Cc1ccc(NCc2c(Cl)cncc2Cl)cc1)C(=O)O [Example 110, (S)-2-[3-(2-Benzenesulfonylphenyl)ureido]-3-{4-[(3,5-dichloropyridin-4-ylmethyl)amino]phenyl}propionic acid]
12 | < 100 nM | O=C(Nc1ccccc1S(=O)(=O)c1ccccc1)N[C@@H](Cc1ccc(OC(=O)c2c(Cl)cncc2Cl)cc1)C(=O)O [Example 116, 3,5-Dichloroisonicotinic acid 4-{(S)-2-[3-(2-benzenesulfonylphenyl)ureido]-2-carboxyethyl}phenyl ester]

Further lines, the compound ahead of its results:

Row | SMILES | IC50
13 | CN(C(=O)c1ccccc1NC(=O)N[C@@H](Cc1ccc(NC(=O)c2c(Cl)cccc2Cl)cc1)C(=O)O)C1CCCCC1 [Example 2] | < 100 nM
14 | CCCCN(Cc1cccs1)S(=O)(=O)c1ccccc1NC(=O)N[C@@H](Cc1ccc(NC(=O)c2c(Cl)cccc2Cl)cc1)C(=O)O [Example 20, (S)-2-{3-[2-(Butylthiophen-2-ylmethylsulfamoyl)phenyl]ureido}-3-[4-(2,6-dichlorobenzoylamino)phenyl]propionic acid] | < 100 nM
15 | O=C(Nc1ccccc1S(=O)(=O)NCc1cccs1)N[C@@H](Cc1ccc(NC(=O)c2c(Cl)cccc2Cl)cc1)C(=O)O [Example 21, (S)-3-[4-(2,6-Dichlorobenzoylamino)phenyl]-2-(3-{2-[(thiophen-2-ylmethyl)sulfamoyl]phenyl}ureido)propionic acid] | < 100 nM
16 | CN(C(=O)N[C@@H](Cc1ccc(NC(=O)c2c(Cl)cccc2Cl)cc1)C(=O)O)c1ccccc1C(=O)N(C)C1CCCCC1 [Example 32] | < 100 nM
17 | O=C(Nc1ccccc1S(=O)(=O)c1ccccc1)N[C@@H](Cc1ccc(NC(=O)c2c(Cl)cccc2Cl)cc1)C(=O)O [Example 36, (S)-2-[3-(2-Benzenesulfonylphenyl)ureido]-3-[4-(2,6-dichlorobenzoylamino)phenyl]propionic acid] | < 100 nM
18 | O=C(Nc1ccccc1Sc1ccccc1)N[C@@H](Cc1ccc(NC(=O)c2c(Cl)cccc2Cl)cc1)C(=O)O [Example 44, (S)-3-[4-(2,6-Dichlorobenzoylamino)phenyl]-2-[3-(2-phenylsulfanylphenyl)ureido]propionic acid] | < 100 nM
19 | O=C(Nc1cc(Cl)ccc1S(=O)(=O)c1ccccc1)N[C@@H](Cc1ccc(NC(=O)c2c(Cl)cccc2Cl)cc1)C(=O)O [Example 48, (S)-2-[3-(2-Benzenesulfonyl-5-chlorophenyl)ureido]-3-[4-(2,6-dichlorobenzoylamino)phenyl]propionic acid] | < 100 nM
20 | O=C(Nc1cccnc1S(=O)(=O)c1ccccc1)N[C@@H](Cc1ccc(NC(=O)c2c(Cl)cccc2Cl)cc1)C(=O)O [Example 58, (S)-2-[3-(2-Benzenesulfonylpyridin-3-yl)ureido]-3-[4-(2,6-dichlorobenzoylamino)phenyl]propionic acid] | < 100 nM
21 | COc1ccc(OC)c(S(=O)(=O)c2ccc(Cl)cc2NC(=O)N[C@@H](Cc2ccc(NC(=O)c3c(Cl)cncc3Cl)cc2)C(=O)O)c1 [Example 64, (S)-2-{3-[5-Chloro-2-(2,5-dimethoxybenzenesulfonyl)phenyl]ureido}-3-{4-[(3,5-dichloropyridine-4-carbonyl)amino]phenyl}propionic acid] | < 100 nM
22 | CN(C1CCCCC1)S(=O)(=O)c1ccccc1NC(=O)N[C@@H](Cc1ccc(NC(=O)c2c(Cl)cncc2Cl)cc1)C(=O)O [Example 66] | < 100 nM
23 | O=C(Nc1cc(Cl)ccc1S(=O)(=O)c1ccccc1)N[C@@H](Cc1ccc(NC(=O)c2c(Cl)cncc2Cl)cc1)C(=O)O [Example 68, (S)-2-[3-(2-Benzenesulfonyl-5-chlorophenyl)ureido]-3-{4-[(3,5-dichloropyridine-4-carbonyl)amino]phenyl}propionic acid] | < 100 nM
24 | CN(C(=O)c1ccccc1NC(=O)N[C@@H](Cc1ccc(NC(=O)c2c(Cl)cncc2Cl)cc1)C(=O)O)C1CCCCC1 [Example 80] | < 100 nM
25 | CN(C(=O)N[C@@H](Cc1ccc(NC(=O)c2c(Cl)cncc2Cl)cc1)C(=O)O)c1ccccc1C(=O)N(C)C1CCCCC1 [Example 81] | < 100 nM
26 | CCCCCN(C(=O)N[C@@H](Cc1ccc(NC(=O)c2c(Cl)cncc2Cl)cc1)C(=O)O)c1ccccc1C(=O)N(C)C1CCCCC1 [Example 84] | < 100 nM
27 | CN(C(=O)c1ccccc1N(Cc1ccccc1)C(=O)N[C@@H](Cc1ccc(NC(=O)c2c(Cl)cncc2Cl)cc1)C(=O)O)C1CCCCC1 [Example 85] | < 100 nM
28 | CN(C(=O)c1ccccc1N(CC1CCCCC1)C(=O)N[C@@H](Cc1ccc(NC(=O)c2c(Cl)cncc2Cl)cc1)C(=O)O)C1CCCCC1 [Example 86] | < 100 nM
29 | CN(C(=O)N[C@@H](Cc1ccc(NC(=O)c2c(Cl)cncc2Cl)cc1)C(=O)O)c1ccccc1S(=O)(=O)N1CCCCC1 [Example 88, (S)-3-(4-{[1-(3,5-Dichloropyridin-4-yl)methyanoyl]amino}phenyl)-2-{3-methyl-3-[2-(piperidine-1-sulfonyl)phenyl]ureido}propionic acid.] | < 100 nM
30 | O=C(Nc1ccccc1S(=O)(=O)C1CCCC1)N[C@@H](Cc1ccc(NC(=O)c2c(Cl)cncc2Cl)cc1)C(=O)O [Example 92, (S)-2-[3-(2-Cyclopentanesulfonylphenyl)ureido]-3-(4-{[1-(3,5-dichloropyridin-4-yl)methanoyl]amino}phenyl)propionic acid] | < 100 nM
31 | Cc1ccc(C(=O)Nc2ccc(C[C@H](NC(=O)Nc3ccccc3S(=O)(=O)c3ccccc3)C(=O)O)cc2)c(Cl)n1 [Example 103, (S)-2-[3-(2-Benzenesulfonylphenyl)ureido]-3-(4-{[1-(2-chloro-6-methylpyridin-3-yl)methanoyl]amino}phenyl)propionic acid] | < 100 nM
32 | COc1cncc(OC)c1C(=O)Nc1ccc(C[C@H](NC(=O)Nc2ccccc2S(=O)(=O)c2ccccc2)C(=O)O)cc1 [Example 105, (S)-2-[3-(2-Benzenesulfonylphenyl)ureido]-3-(4-{[1-(3,5-dimethoxypyridin-4-yl)-methanoyl]amino}phenyl)propionic acid] | < 100 nM
